Experimental findings from patent US11208387B2, “Macrocyclic broad spectrum antibiotics” (Genentech, Inc., priority 2019, dated 2021) are described below.

Assay [1] relates to Klebsiella pneumoniae ATCC 700603. The assay can be described thus: Serum MIC, broth micro-dilution. Type of assay: cell-based. As to conditions: Klebsiella pneumoniae, read-out: K pneumoniae 700603 Serum MIC. An outline of the steps:
(§1)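 Serum-shifted MIC: medium is a 1:1 v/v mix of cation-adjusted MH II broth and mouse serum. 10-point 2-fold dilution series, top 64, 4, 0.5 or 0.13 μg/mL depending on protocol. Inoculum OD600 0.0005 final; 35° C, 22 h.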

Assay [2] deals with Pseudomonas aeruginosa PA01. In words: Serum MIC, broth micro-dilution. The class given is cell-based. As to conditions: Pseudomonas aeruginosa, read-out: P. aeruginosa 01 Serum MIC. The procedure, abridged: as §1
(In general: Dilution methods test growth across graded concentrations, often in twofold steps.)

Assay [3] relates to Acinetobacter baumannii ATCC 17978. In words: Serum MIC, broth micro-dilution. The class given is cell-based. As to conditions: Acinetobacter baumannii. The procedure, abridged: as §1
In assay [4] the test system is Escherichia coli strain ATCC 25922. In words: Serum MIC, broth micro-dilution. The class given is cell-based. As to conditions: Escherichia coli, read-out: E. coli 25922 Serum MIC. An outline of the steps: as §1
Assay [5] concerns isolated liver mitochondria. In words: Mitochondrial oxygen consumption rate (OCR) assay. The class given is biochemical, Sprague-Dawley rats. To be noted: isolated rat liver mitochondria, state 3 (S3) respiration, glutamate/malate; Table 3. The source says:
Male Sprague-Dawley rats (8-10 weeks of age) were euthanized with an overdose of carbon dioxide. The liver was rapidly excised and placed in ice-cold phosphate-buffered saline (PBS) before isolation process. Mitochondria were isolated using the MitoCheck® Mitochondrial Isolation Kit (Cayman Chemical #701010, Ann Arbor, Mich.) according to manufacturer's instructions. In brief, approximately 10-14 grams of liver tissues were finely minced using a pair of scissors, and washed repeatedly with ice-cold PBS, followed by Mito Isolation Buffer. The minced tissues were homogenized with 30 ml Mito Homogenization Buffer in 40 ml dounce homogenizer and a smooth glass grinder. The homogenate was split into two clean 30 ml polycarbonate tubes and centrifuged at 1,000×g, 4° C., for 3 minutes. The supernatant was subjected to further centrifugation at 10,000×g, 4° C., for 10 minutes. The supernatant was discarded and mitochondrial pellet was suspended in Mito Isolation Buffer using a glass stirring rod and stored on ice until use. Protein concentration of mitochondria was determined using a bicinchoninic acid protein assay kit (Thermo Scientific, Waltham, Mass.).
Oxygen consumption was monitored as essentially described by Will et al., “Analysis of mitochondrial function using phosphorescent oxygen-sensitive probes,” Nature Protocols Vol. 1(6) (2006) 2563. Briefly, isolated mitochondria (50 μg mitochondrial proteins/state 3 (S3) of mitochondrial respiration for inhibitor identification, 100 μg/S2 for uncoupler identification) were incubated with compounds in 25 μl of Measurement Buffer (MB: 250 mM sucrose, 15 mM KCl, 1 mM EGTA, 5 mM MgCl2, 30 mM K2HPO4, pH 7.4) including 1% DMSO on ice for 1 hour, then mixed with 25 μl of substrate mixture including an oxygen-sensitive phosphorescent dye (MitoXpress Xtra, Agilent, Santa Clara, Calif.), glutamate (25 mM, G1626, Sigma, St. Louis, Mo.), malate (25 mM, M6413, Sigma), ADP (3.3 mM, A2754, Sigma, only for S3 of mitochondrial respiration), Fatty acid free BSA (0.1%, A0281, Sigma), and a complex II-specific inhibitor TTFA (2 μM, T27006, Sigma for the assessment of complex I-mitochondrial respiration with glutamate/malate) in a black wall/clear bottom 384-well plate. The mixtures were covered with HS mineral oil (Agilent) using the Viaflo 384-channel pipette (Integra, Hudson, N.H.). Oxygen consumption was measured for 30 min at 30° C. using a spectrofluorimeter (FLUOstar Omega, BMG Labtech, Cary, N.C.). In S3, DMSO vehicle control and antimycin A (10 μM) were used to define 0% and 100% inhibition. In S2, DMSO vehicle and FCCP (0.5-1 μM) was used to define 0% and 100% uncoupling, respectively. Area under curve typically in a range of 0-12 min (S3) or 0-24 min (S2) was used for calculations. IC50 or UC50 (uncoupling concentration), a concentration that causes 50% of inhibition or maximal (uncoupling) activation of oxygen consumption, was used to evaluate experimental quality. Data were presented as μM (per 50 μg (S3) or 100 μg (S2) mitochondrial proteins). Compounds with IC50: <100 μM (S3) and/or UC50: <200 μM (S2) were considered as high-risk on mitochondrial toxicity. Compounds with 25-50% changes in inhibition and/or uncoupling were categorized as medium-risk, since compounds with >25% changes are considered as responders.
Toxicity associated with mitochondrial dysfunction has presented a problem for promising potential antibiotics as we as other types of therapeutics. The mitochondrial oxygen consumption rate (OCR) assay is considered a reliable indicator of potential internal organ toxicity issues that may occur with powerful antibiotics. The carboxylate compounds of the invention show unexpected lower toxicity than prior art “glycine nitrile” arylomycin analogs (see, e.g., WO 2018/149419) in the mitochondrial oxygen consumption rate (OCR) assay.

Where [6] appears, read: ATCC700603, 50% v/v mouse serum in Mueller Hinton II cation adjusted Broth, 35° C., 22 hours, Table 4.
Setting [7] is: PA01, 50% v/v mouse serum in Mueller Hinton II cation adjusted Broth, 35° C., 22 hours, Table 4.
Setting [8] is: ATCC17978, 50% v/v mouse serum in Mueller Hinton II cation adjusted Broth, 35° C., 22 hours, Table 4, read-out: A. baumanii 17978 Serum MIC.
The mark [9] stands for this setting: ATCC17978, 50% v/v mouse serum in Mueller Hinton II cation adjusted Broth, 35° C., 22 hours, Table 5, read-out: Acinetobacter baumanii 17978 Serum MIC.
The mark [10] stands for this setting: ATCC25922, 50% v/v mouse serum in Mueller Hinton II cation adjusted Broth, 35° C., 22 hours, Table 4.

Converted amounts (≈) assume the structure as drawn. Where two headings read alike, the source gives them in different places.

For orientation: MIC means the lowest concentration that inhibits growth of the organism. The term IC50 denotes the point on the concentration scale where inhibition reaches its midpoint. A lower IC50 goes with greater potency. `Cc1nc(-c2ccc(C3(C)CC3)cc2)ncc1C(=O)N[C@@H](CCN)C(=O)N(C)[C@@H]1C(=O)N[C@@H](C)C(=O)N[C@H](C(=O)O)Cc2ccc(OC[C@H](O)CN)c(c2)-c2cc1cc(OC[C@H](O)CN)c2O` [Example 28, (8S,11S,14S)-18-hydroxy-11-methyl-14-[methyl-[(2S)-4-amino-2-[[4-methyl-2-[4-(1-methylcyclo-propyl)phenyl]-pyrimidine-5-carbonyl]amino]-butanoyl]amino]-10,13-dioxo-3,17-bis[(2R)-3-amino-2-hydroxy-propoxy]-9,12-diazatricyclo-[13.3.1.12,6]icosa-1(18),2(20),3,5,15(19), 16-hexaene-8-carboxylic acid]: the minimum inhibitory concentration (MIC) in assay [1] (setting [6]) came out at 0.17 µM (≈ 0.157 µg/mL); in assay [2] (setting [7]) it was 43 µM (≈ 39.8 µg/mL); in assay [3] (setting [8]), 11 µM (≈ 10.2 µg/mL); in assay [3] (setting [9]), 11 µM (≈ 10.2 µg/mL); in assay [4] (setting [10]) it was 0.21 µM (≈ 0.194 µg/mL). The molecule further returned an IC50 in assay [5] of more than 250 µM.

Take `Cc1nc(-c2ccc(C(F)(F)C(C)C)cc2)nc(N)c1C(=O)N[C@@H](CNS(N)(=O)=O)C(=O)N(C)[C@@H]1C(=O)N[C@@H](C)C(=O)N[C@H](C(=O)O)Cc2ccc(OC[C@H](O)CN)c(c2)-c2cc1cc(OC[C@H](O)CN)c2O` [Example 38, (8S,11S,14S)-14-[[(2S)-2-[[4-amino-2-[4-(1,1-difluoro-2-methyl-propyl)-phenyl]-6-methyl-pyrimidine-5-carbonyl]amino]-3-(sulfamoylamino)-propanoyl]-methyl-amino]-3,17-bis[(2R)-3-amino-2-hydroxy-propoxy]-18-hydroxy-11-methyl-10,13-dioxo-9,12-diazatri-cyclo[13.3.1.12,6]icosa-1(18),2(20),3,5,15(19), 16-hexaene-8-carboxylic acid]: the MIC in assay [1] (setting [6]) was determined as 0.5 µM (≈ 0.522 µg/mL); in assay [2] (setting [7]), 12 µM (≈ 12.5 µg/mL); in assay [3] (setting [8]), 16 µM (≈ 16.7 µg/mL); in assay [3] (setting [9]) it was 16 µM (≈ 16.7 µg/mL); in assay [4] (setting [10]), 0.5 µM (≈ 0.522 µg/mL). In assay [5], this molecule displayed a half-inhibitory concentration (IC50) of more than 100 µM.

In the case of `Cc1nc(-c2ccc(C(C)(C)C)cc2O)nc(N)c1C(=O)N[C@@H](CNS(N)(=O)=O)C(=O)N(C)[C@@H]1C(=O)N[C@@H](C)C(=O)N[C@H](C(=O)O)Cc2ccc(OC[C@H](O)CN)c(c2)-c2cc1cc(OC[C@H](O)CN)c2O` [Example 44, (8S,11S,14S)-14-[[(2S)-2-[[4-amino-2-(4-tert-butyl-2-hydroxy-phenyl)-6-methyl-pyrimidine-5-carbonyl]amino]-3-(sulfamoylamino)-propanoyl]-methyl-amino]-3,17-bis[(2R)-3-amino-2-hydroxy-propoxy]-18-hydroxy-11-methyl-10,13-dioxo-9,12-diazatricyclo-[13.3.1.12,6]icosa-1(18),2(20),3,5,15(19), 16-hexaene-8-carboxylic acid], the minimum inhibitory concentration (MIC) was determined as 0.5 µM (≈ 0.512 µg/mL) in assay [1] (setting [6]); 4 µM (≈ 4.1 µg/mL) in assay [2] (setting [7]); 8 µM (≈ 8.19 µg/mL) in assay [3] (setting [8]); 8 µM (≈ 8.19 µg/mL) in assay [3] (setting [9]); 0.5 µM (≈ 0.512 µg/mL) in assay [4] (setting [10]). Moreover, in assay [5], the IC50 is 44 µM.

With `Cc1nc(-c2ccc(C(C)(C)C)cc2)nc(C)c1C(=O)N[C@@H](CNS(N)(=O)=O)C(=O)N(C)[C@@H]1C(=O)N[C@@H](C)C(=O)N[C@H](C(=O)O)Cc2ccc(OC[C@H](O)CN)c(c2)-c2cc1cc(OC[C@H](O)CN)c2O` [Example 7, (8S,11S,14S)-18-hydroxy-11-methyl-14-[methyl-[(2S)-2-[[2-(4-tert-butyl-phenyl)-4,6-dimethyl-pyrimidine-5-carbonyl]amino]-3-(sulfamoylamino)-propanoyl]amino]-10,13-dioxo-3,17-bis[(2R)-3-amino-2-hydroxy-propoxy]-9,12-diazatricyclo-[13.3.1.12,6]icosa-1(18),2(20),3,5,15(19), 16-hexaene-8-carboxylic acid], the MIC is 0.46 µM (≈ 0.463 µg/mL) in assay [1] (setting [6]); 4.3 µM (≈ 4.33 µg/mL) in assay [2] (setting [7]); 9.3 µM (≈ 9.37 µg/mL) in assay [3] (setting [8]); 9.3 µM (≈ 9.37 µg/mL) in assay [3] (setting [9]); 0.42 µM (≈ 0.423 µg/mL) in assay [4] (setting [10]). The molecule also returned a 50% inhibitory concentration (IC50) in assay [5] of more than 250 µM.

In the case of `C[C@@H]1NC(=O)[C@@H](N(C)C(=O)[C@H](CCN)NC(=O)c2c(N)nc(-c3ccc(C(C)(C)C)cc3)nc2C(F)F)c2cc(OC[C@H](O)CN)c(O)c(c2)-c2cc(ccc2OC[C@H](O)CN)C[C@@H](C(=O)O)NC1=O` [Example 32, (8S,11S,14S)-18-hydroxy-11-methyl-14-[methyl-[(2S)-4-amino-2-[[2-(4-tert-butylphenyl)-4-amino-6-difluoro-methyl-pyrimidine-5-carbonyl]amino]-butanoyl]amino]-10,13-dioxo-3,17-bis[(2R)-3-amino-2-hydroxy-propoxy]-9,12-diazatricyclo-[13.3.1.12,6]icosa-1(18),2(20),3,5,15(19), 16-hexaene-8-carboxylic acid], the MIC in assay [1] (setting [6]) is 0.25 µM (≈ 0.245 µg/mL); in assay [2] (setting [7]), 16 µM (≈ 15.7 µg/mL); in assay [3] (setting [8]), 4 µM (≈ 3.92 µg/mL); in assay [3] (setting [9]), 4 µM (≈ 3.92 µg/mL); in assay [4] (setting [10]), 0.25 µM (≈ 0.245 µg/mL). The molecule further returned an IC50 in assay [5] of more than 100 µM.

As for `Cc1nc(-c2ccc(OCCC(C)(C)C)cc2)nc(N)c1C(=O)N[C@@H](CCN)C(=O)N(C)[C@@H]1C(=O)N[C@@H](C)C(=O)N[C@H](C(=O)O)Cc2ccc(OC[C@H](O)CN)c(c2)-c2cc1cc(OC[C@H](O)CN)c2O` [Example 18, (8S,11S,14S)-18-hydroxy-11-methyl-14-[methyl-[(2S)-4-amino-2-[[4-amino-2-[4-(3,3-dimethyl-butoxy)phenyl]-6-methyl-pyrimidine-5-carbonyl]amino]-butanoyl]amino]-10,13-dioxo-3,17-bis[(2R)-3-amino-2-hydroxy-propoxy]-9,12-diazatricyclo-[13.3.1.12,6]icosa-1(18),2(20),3,5,15(19), 16-hexaene-8-carboxylic acid], the minimal inhibitory concentration (MIC) in assay [1] (ATCC700603, 22 h) turned out to be 0.25 µM (≈ 0.247 µg/mL); in assay [2] (PA01, 22 h), 4 µM (≈ 3.95 µg/mL); in assay [3] (ATCC17978, 22 h, read-out: A. baumanii 17978 Serum MIC), 8 µM (≈ 7.9 µg/mL); in assay [3] (ATCC17978, 22 h, read-out: Acinetobacter baumanii 17978 Serum MIC) it was 8 µM (≈ 7.9 µg/mL); in assay [4] (ATCC25922, 22 h), 0.25 µM (≈ 0.247 µg/mL). For the same molecule, in assay [5], half-maximal inhibition (IC50) required 119 µM.
